Data from ChEMBL document CHEMBL1154382, “Preliminary SAR analysis of novel antiproliferative N(6),5'-bis-ureidoadenosine derivatives” (2009).

How the values were obtained:
Type in all cases: functional
Details in all cases: values are per cent of control
CCRF-CEM = assay: Antiproliferative activity against human CCRF-CEM cells at 10 uM assessed as cell growth inhibition relative to control
HL-60(TB) = assay: Antiproliferative activity against human HL-60(TB) cells at 10 uM assessed as cell growth inhibition relative to control
K562 = assay: Antiproliferative activity against human K562 cells at 10 uM assessed as cell growth inhibition relative to control
MOLT-4 = assay: Antiproliferative activity against human MOLT4 cells at 10 uM assessed as cell growth inhibition relative to control
[1] = Antiproliferative activity against human […] cells at 10 uM assessed as cell growth inhibition relative to control
A549 = assay: Antiproliferative activity against human A549 cells at 10 uM assessed as cell growth inhibition relative to control
EKVX = assay: Antiproliferative activity against human EKVX cells at 10 uM assessed as cell growth inhibition relative to control
PC-3 = assay: Antiproliferative activity against human PC3 cells at 10 uM assessed as cell growth inhibition relative to control
HOP-62 = assay: Antiproliferative activity against human HOP62 cells at 10 uM assessed as cell growth inhibition relative to control
HOP-92 = assay: Antiproliferative activity against human HOP92 cells at 10 uM assessed as cell growth inhibition relative to control
NCI-H226 = assay: Antiproliferative activity against human NCI-H226 cells at 10 uM assessed as cell growth inhibition relative to control
NCI-H23 = assay: Antiproliferative activity against human NCI-H23 cells at 10 uM assessed as cell growth inhibition relative to control
NCI-H322M = assay: Antiproliferative activity against human NCI-H322M cells at 10 uM assessed as cell growth inhibition relative to control
NCI-H460 = assay: Antiproliferative activity against human NCI-H460 cells at 10 uM assessed as cell growth inhibition relative to control
NCI-H522 = assay: Antiproliferative activity against human NCI-H522 cells at 10 uM assessed as cell growth inhibition relative to control
COLO 205 = assay: Antiproliferative activity against human COLO205 cells at 10 uM assessed as cell growth inhibition relative to control
HCC 2998 = assay: Antiproliferative activity against human HCC2998 cells at 10 uM assessed as cell growth inhibition relative to control
HCT-116 = assay: Antiproliferative activity against human HCT116 cells at 10 uM assessed as cell growth inhibition relative to control
HCT-15 = assay: Antiproliferative activity against human HCT15 cells at 10 uM assessed as cell growth inhibition relative to control
HT-29 = assay: Antiproliferative activity against human HT-29 cells at 10 uM assessed as cell growth inhibition relative to control
KM12 = assay: Antiproliferative activity against human KM12 cells at 10 uM assessed as cell growth inhibition relative to control
SW-620 = assay: Antiproliferative activity against human SW620 cells at 10 uM assessed as cell growth inhibition relative to control
LOX IMVI = assay: Antiproliferative activity against human LOXIMVI cells at 10 uM assessed as cell growth inhibition relative to control
Malme-3M = assay: Antiproliferative activity against human MALME-3M cells at 10 uM assessed as cell growth inhibition relative to control
M14 = assay: Antiproliferative activity against human M14 cells at 10 uM assessed as cell growth inhibition relative to control
SK-MEL-2 = assay: Antiproliferative activity against human SK-MEL-2 cells at 10 uM assessed as cell growth inhibition relative to control
SK-MEL-28 = assay: Antiproliferative activity against human SK-MEL-28 cells at 10 uM assessed as cell growth inhibition relative to control
SK-MEL-5 = assay: Antiproliferative activity against human SK-MEL-5 cells at 10 uM assessed as cell growth inhibition relative to control
UACC-257 = assay: Antiproliferative activity against human UACC257 cells at 10 uM assessed as cell growth inhibition relative to control
UACC-62 = assay: Antiproliferative activity against human UACC62 cells at 10 uM assessed as cell growth inhibition relative to control
SF-268 = assay: Antiproliferative activity against human SF268 cells at 10 uM assessed as cell growth inhibition relative to control
SF-295 = assay: Antiproliferative activity against human SF295 cells at 10 uM assessed as cell growth inhibition relative to control
SF-539 = assay: Antiproliferative activity against human SF539 cells at 10 uM assessed as cell growth inhibition relative to control
SNB-19 = assay: Antiproliferative activity against human SNB19 cells at 10 uM assessed as cell growth inhibition relative to control
SNB-75 = assay: Antiproliferative activity against human SNB75 cells at 10 uM assessed as cell growth inhibition relative to control
U-251 = assay: Antiproliferative activity against human U251 cells at 10 uM assessed as cell growth inhibition relative to control
IGROV-1 = assay: Antiproliferative activity against human IGROV1 cells at 10 uM assessed as cell growth inhibition relative to control
OVCAR-3 = assay: Antiproliferative activity against human OVCAR-3 cells at 10 uM assessed as cell growth inhibition relative to control
OVCAR-4 = assay: Antiproliferative activity against human OVCAR4 cells at 10 uM assessed as cell growth inhibition relative to control
OVCAR-5 = assay: Antiproliferative activity against human OVCAR5 cells at 10 uM assessed as cell growth inhibition relative to control
OVCAR-8 = assay: Antiproliferative activity against human OVCAR8 cells at 10 uM assessed as cell growth inhibition relative to control
SK-OV-3 = assay: Antiproliferative activity against human SKOV3 cells at 10 uM assessed as cell growth inhibition relative to control
786-0 = assay: Antiproliferative activity against human 786-0 cells at 10 uM assessed as cell growth inhibition relative to control
A498 = assay: Antiproliferative activity against human A498 cells at 10 uM assessed as cell growth inhibition relative to control
ACHN = assay: Antiproliferative activity against human ACHN cells at 10 uM assessed as cell growth inhibition relative to control
CAKI-1 = assay: Antiproliferative activity against human Caki1 cells at 10 uM assessed as cell growth inhibition relative to control
RXF 393 = assay: Antiproliferative activity against human RXF393 cells at 10 uM assessed as cell growth inhibition relative to control
SN12C = assay: Antiproliferative activity against human SN12C cells at 10 uM assessed as cell growth inhibition relative to control
TK-10 = assay: Antiproliferative activity against human TK10 cells at 10 uM assessed as cell growth inhibition relative to control
UO-31 = assay: Antiproliferative activity against human UO31 cells at 10 uM assessed as cell growth inhibition relative to control
BT-549 = assay: Antiproliferative activity against human BT549 cells at 10 uM assessed as cell growth inhibition relative to control
[2] = Antiproliferative activity against human Hs 578T cells at 10 uM assessed as cell growth inhibition relative to control
MCF7 = assay: Antiproliferative activity against human MCF7 cells at 10 uM assessed as cell growth inhibition relative to control
MDA-MB-231 = assay: Antiproliferative activity against human MDA-MB-231 cells at 10 uM assessed as cell growth inhibition relative to control
MDA-MB-468 = assay: Antiproliferative activity against human MDA-MB-468 cells at 10 uM assessed as cell growth inhibition relative to control
T47D = assay: Antiproliferative activity against human T47D cells at 10 uM assessed as cell growth inhibition relative to control
DU-145 = assay: Antiproliferative activity against human DU145 cells at 10 uM assessed as cell growth inhibition relative to control

Structure (SMILES): CCOC(=O)C[C@H]1[C@@H](O[Si](C)(C)C(C)(C)C)[C@H](n2cnc3c(N)ncnc32)O[C@@H]1CNC(=O)NC
- growth, % of control at 10 µM (CCRF-CEM): 98%
- growth, % of control at 10 µM (HL-60(TB)): 107%
- growth, % of control at 10 µM (K562): 106%
- growth, % of control at 10 µM (MOLT-4): 108%
- growth, % of control at 10 µM [1]: 98%
- growth, % of control at 10 µM (A549): 84%
- growth, % of control at 10 µM (EKVX): 92%
- growth, % of control at 10 µM (PC-3): 98%
- growth, % of control at 10 µM (HOP-62): 84%
- growth, % of control at 10 µM (HOP-92): 94%
- growth, % of control at 10 µM (NCI-H226): 99%
- growth, % of control at 10 µM (NCI-H23): 97%
- growth, % of control at 10 µM (NCI-H322M): 94%
- growth, % of control at 10 µM (NCI-H460): 111%
- growth, % of control at 10 µM (NCI-H522): 79%
- growth, % of control at 10 µM (COLO 205): 117%
- growth, % of control at 10 µM (HCC 2998): 84%
- growth, % of control at 10 µM (HCT-116): 100%
- growth, % of control at 10 µM (HCT-15): 97%
- growth, % of control at 10 µM (HT-29): 111%
- growth, % of control at 10 µM (KM12): 103%
- growth, % of control at 10 µM (SW-620): 96%
- growth, % of control at 10 µM (LOX IMVI): 92%
- growth, % of control at 10 µM (Malme-3M): 95%
- growth, % of control at 10 µM (M14): 106%
- growth, % of control at 10 µM (SK-MEL-2): 91%
- growth, % of control at 10 µM (SK-MEL-28): 107%
- growth, % of control at 10 µM (SK-MEL-5): 94%
- growth, % of control at 10 µM (UACC-257): 86%
- growth, % of control at 10 µM (UACC-62): 80%
- growth, % of control at 10 µM (SF-268): 97%
- growth, % of control at 10 µM (SF-295): 101%
- growth, % of control at 10 µM (SF-539): 97%
- growth, % of control at 10 µM (SNB-19): 99%
- growth, % of control at 10 µM (SNB-75): 86%
- growth, % of control at 10 µM (U-251): 98%
- growth, % of control at 10 µM (IGROV-1): 97%
- growth, % of control at 10 µM (OVCAR-3): 98%
- growth, % of control at 10 µM (OVCAR-4): 99%
- growth, % of control at 10 µM (OVCAR-5): 87%
- growth, % of control at 10 µM (OVCAR-8): 100%
- growth, % of control at 10 µM (SK-OV-3): 110%
- growth, % of control at 10 µM (786-0): 93%
- growth, % of control at 10 µM (A498): 109%
- growth, % of control at 10 µM (ACHN): 90%
- growth, % of control at 10 µM (CAKI-1): 96%
- growth, % of control at 10 µM (RXF 393): 138%
- growth, % of control at 10 µM (SN12C): 88%
- growth, % of control at 10 µM (TK-10): 101%
- growth, % of control at 10 µM (UO-31): 87%
- growth, % of control at 10 µM (BT-549): 85%
- growth, % of control at 10 µM [2]: 98%
- growth, % of control at 10 µM (MCF7): 87%
- growth, % of control at 10 µM (MDA-MB-231): 96%
- growth, % of control at 10 µM (MDA-MB-468): 92%
- growth, % of control at 10 µM (T47D): 95%
- growth, % of control at 10 µM (DU-145): 98%
